Laboratory results published in the supplement of paper PMC10307832.

What was measured:
Test in all cases: relative viability (nuclei count vs DMSO), 5 days (fraction); higher = more cells survive
MLN4924 + Crizotinib = compound: NS(=O)(=O)OC[C@@H]1C[C@@H](n2ccc3c(N[C@H]4CCc5ccccc54)ncnc32)C[C@@H]1O [MLN4924] + C[C@@H](Oc1cc(-c2cnn(C3CCNCC3)c2)cnc1N)c1c(Cl)ccc(F)c1Cl [Crizotinib] (partner 1 µM)
In short: (§1)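 Relative viability is defined as nuclei in treated wells over nuclei in vehicle wells. Duplicate plates were run and medians reported. Lung cancer cell lines in 1536-well plates were dosed by pin tool one day after seeding, with one drug or with a fixed anchor-drug dose plus five library-drug doses (not always all listed) in √10 steps, and nuclei were counted after 5 days.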

GSK126 + Lapatinib = compound: CC[C@H](C)N1C=C(C2=C(C=C(C=C21)C3=CN=C(C=C3)N4CCNCC4)C(=O)NCC5=C(C=C(NC5=O)C)C)C [GSK126] + CS(=O)(=O)CCNCc1ccc(-c2ccc3ncnc(Nc4ccc(OCc5cccc(F)c5)c(Cl)c4)c3c2)o1 [Lapatinib] (partner 2 µM)
In short: as §1

GSK126 + OSI-027 = compound: CC[C@H](C)N1C=C(C2=C(C=C(C=C21)C3=CN=C(C=C3)N4CCNCC4)C(=O)NCC5=C(C=C(NC5=O)C)C)C [GSK126] + COc1cccc2cc(-c3nc([C@H]4CC[C@H](C(=O)O)CC4)n4ncnc(N)c34)[nH]c12 [OSI-027] (partner 0.5 µM)
In short: as §1

GSK126 + Pemetrexed = compound: CC[C@H](C)N1C=C(C2=C(C=C(C=C21)C3=CN=C(C=C3)N4CCNCC4)C(=O)NCC5=C(C=C(NC5=O)C)C)C [GSK126] + Nc1nc2[nH]cc(CCc3ccc(C(=O)N[C@@H](CCC(=O)O)C(=O)O)cc3)c2c(=O)[nH]1 [Pemetrexed] (partner 0.2 µM)
In short: as §1

In the case of UMC-11, the relative viability (MLN4924 + Crizotinib; first compound 0.04 µM) is reported as 0.298, the relative viability (MLN4924 + Crizotinib; first compound 0.1265 µM) is reported as 0.184 and the relative viability (MLN4924 + Crizotinib; first compound 0.4 µM) is reported as 0.234. For the same cell line, the relative viability (MLN4924 + Crizotinib; first compound 1.265 µM) was 0.0782, the relative viability (MLN4924 + Crizotinib; first compound 4 µM) was 0.0855 and the relative viability (GSK126 + Lapatinib; first compound 0.08 µM) was 1.05. It also gave a relative viability (GSK126 + Lapatinib; first compound 0.253 µM) of 0.998, a relative viability (GSK126 + Lapatinib; first compound 0.8 µM) of 1.13 and a relative viability (GSK126 + Lapatinib; first compound 2.53 µM) of 0.796. It also gave a relative viability (GSK126 + Lapatinib; first compound 8 µM) of 0.959, a relative viability (GSK126 + OSI-027; first compound 0.08 µM) of 0.563 and a relative viability (GSK126 + OSI-027; first compound 0.253 µM) of 0.522. The relative viability (GSK126 + OSI-027; first compound 0.8 µM) was 0.484, the relative viability (GSK126 + OSI-027; first compound 2.53 µM) was 0.44 and the relative viability (GSK126 + OSI-027; first compound 8 µM) was 0.43. For the same cell line, the relative viability (GSK126 + Pemetrexed; first compound 0.08 µM) was 0.841, the relative viability (GSK126 + Pemetrexed; first compound 0.253 µM) was 0.749 and the relative viability (GSK126 + Pemetrexed; first compound 0.8 µM) was 0.756. For the same cell line, the relative viability (GSK126 + Pemetrexed; first compound 2.53 µM) was 0.744 and the relative viability (GSK126 + Pemetrexed; first compound 8 µM) was 0.831.
